Data taken from PubChem BioAssay (NCI).
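These data come from cells grown in 96-well plates and exposed to compound for 48 hours at five concentrations. At the TGI there is no net growth.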

What was measured:
Experiment in all cases: NCI anticancer screen, dose series, 48 h
NCI-H460 lung = system: NCI-H460 lung
K-562 leukemia = system: K-562 leukemia
UACC-62 melanoma = system: UACC-62 melanoma
KM12 colon = system: KM12 colon
OVCAR-3 ovarian = system: OVCAR-3 ovarian
NCI-H23 lung = system: NCI-H23 lung
SNB-75 CNS = system: SNB-75 CNS
COLO 205 colon = system: COLO 205 colon
SK-MEL-2 melanoma = system: SK-MEL-2 melanoma
DU-145 prostate = system: DU-145 prostate

Structure (SMILES) | TGI (NCI-H460 lung) | TGI (K-562 leukemia) | TGI (UACC-62 melanoma) | TGI (KM12 colon) | TGI (OVCAR-3 ovarian) | TGI (NCI-H23 lung) | TGI (SNB-75 CNS) | TGI (COLO 205 colon) | TGI (SK-MEL-2 melanoma) | TGI (DU-145 prostate)
c1ccc(C2=NOC3(c4ccccc4)SC4CCCCC4CN23)cc1 (configuration not stated) | > 100 µM | > 100 µM | 83.1 µM | 88.9 µM | > 100 µM | > 100 µM | 84.8 µM | 69.4 µM | > 100 µM | 
CC(C)(C)NC(=O)NC12CC3CC(CC(F)(C3)C1)C2 | > 100 µM | > 100 µM | > 100 µM | > 100 µM | > 100 µM | > 100 µM | > 100 µM | > 100 µM | > 100 µM | 
O=c1[nH]c2cc([N+](=O)[O-])ccc2nc1/C(=N/Nc1ccccc1)C(O)c1ccc(C(O)/C(=N\Nc2ccccc2)c2cnc3cc([N+](=O)[O-])ccc3n2)cc1 (configuration not stated) | > 100 µM | > 100 µM | > 100 µM | > 100 µM | > 100 µM | > 100 µM |  | > 100 µM | > 100 µM | 
O=C(Cc1csc(N=Nc2c(O)[nH]c3ccccc23)n1)Nc1ccccc1 | > 100 µM |  |  | > 100 µM | 93.3 µM | > 100 µM | 86.9 µM | > 100 µM | > 100 µM | 91.5 µM
CCN(CC)CCCNc1ncc(C)c2[nH]c3ccncc3c12 | 15.6 µM | > 100 µM | 28.2 µM | 42 µM | 56.3 µM | 34.6 µM | 27.7 µM | 22.6 µM | 23.6 µM | 
CCOC(=O)c1sc(N/N=C2\NC(=O)/C(=C/c3ccc([N+](=O)[O-])cc3)S2)nc1C | 48.2 µM |  | 73.4 µM | 57.1 µM | 49.9 µM | 80.5 µM | 74.6 µM | 48.5 µM | 81.3 µM | 47.4 µM
NC(=O)NC(=O)c1cccc(CNc2ccc(C(=O)N[C@@H](CCC(=O)O)C(=O)O)cc2)n1 | > 100 µM | > 100 µM | > 100 µM | > 100 µM | > 100 µM | > 100 µM |  | > 100 µM | > 100 µM | > 100 µM
Cc1ccc(S(=O)(=O)N2C[C@](O)(c3ccccc3)[C@H]2C)cc1 | > 100 µM |  | > 100 µM | > 100 µM |  | > 100 µM | > 100 µM | > 100 µM | > 100 µM | > 100 µM
CCOC(=O)Cc1csc2[n+]1C(=O)/C(=C\c1cccc(Cl)c1Cl)S2 | 45.8 µM |  | 21.8 µM | 33.5 µM | 42.1 µM | 48.9 µM | 76.6 µM | 20.7 µM | 36.7 µM | 46.3 µM
Cc1c2c(n(CCc3ccccc3)c1C)N(C)N=C(C#N)S2(=O)=O | > 100 µM |  | > 100 µM | > 100 µM | > 100 µM | > 100 µM | > 100 µM |  | > 100 µM | > 100 µM
O=C(O)CS | > 100 µM | > 100 µM | > 100 µM | > 100 µM |  | > 100 µM | > 100 µM | > 100 µM | > 100 µM | 
COC(=O)c1cccc(N[C@@H]2c3cc4c(cc3C(c3cc(OC)c(O)c(OC)c3)[C@H]3C(=O)OCC32)OCO4)c1 (some centres not stated) | 2.24 µM | 20.6 µM | 8.28 µM | 10.2 µM | 33.7 µM | 4.01 µM | > 21 µM | 5.5 µM | > 63 µM | 
OC[C@]1(n2nc3ccccc3n2)OC[C@@H]1c1ccccc1 | > 100 µM | > 100 µM | > 100 µM | > 100 µM | 71.2 µM | > 100 µM |  | > 100 µM | > 100 µM | > 100 µM
CN(CCO)c1nc(N)cc(=O)[nH]1 | > 100 µM | > 100 µM | > 100 µM | > 100 µM | > 100 µM | > 100 µM | > 100 µM | > 100 µM | > 100 µM | 
COc1ccc2c(c1)/C(=C\c1c(C)nc3sc(C)cn13)C(=O)N2 | 16.5 µM | > 100 µM | 97.9 µM | 62.4 µM | 3.93 µM | > 70.7 µM |  |  | > 28.3 µM | > 46.1 µM
Cc1oc(N)c(S(=O)(=O)c2ccc(Cl)cc2)c1C | > 100 µM | > 100 µM | > 100 µM | > 100 µM | > 100 µM | > 100 µM | > 100 µM |  | > 100 µM | > 100 µM
C=C(C)CC1(O)C(=O)C(OCC)=C1OCC (configuration not stated) | > 100 µM |  | > 100 µM | > 100 µM | > 100 µM | > 100 µM | > 100 µM | > 100 µM | > 100 µM | > 100 µM
Cc1cc(S(=O)(=O)/N=C(\[N-]S(=O)(=O)c2ccc(Cl)cc2)[n+]2ccc(N(C)C)cc2)c(S)cc1Cl | > 100 µM | > 100 µM |  | > 100 µM | > 100 µM | > 100 µM |  |  | > 100 µM | > 100 µM
C/C(=N\Nc1nc2ccccc2n1C)c1cnccn1 | > 100 µM | > 100 µM |  | > 33.2 µM | 2.75 µM | > 100 µM | > 100 µM | > 100 µM | > 100 µM | > 100 µM
COc1cc(/C=C2/SC(c3ccccc3)N(c3ccccc3)C2=O)cc(OC)c1OC (configuration not stated) | > 100 µM | > 100 µM | > 100 µM | > 100 µM | > 100 µM | > 100 µM |  | > 100 µM | > 100 µM | > 100 µM
C/C=C\C(CC(=O)NCCC1CN(S(=O)(=O)C(F)(F)F)c2ccccc21)CC(=O)OC (configuration not stated) | > 100 µM | > 100 µM | > 100 µM | > 100 µM | > 100 µM | > 100 µM |  | 63 µM | 94 µM | > 100 µM
S=P1(N2CCCCC2)Oc2ccc3ccccc3c2-c2c(ccc3ccccc23)O1 | > 91.6 µM | > 100 µM | > 100 µM | > 100 µM | > 88.3 µM | > 100 µM | > 92.1 µM | > 100 µM | > 100 µM | 
COc1cc(C=C2C(C)=NN(c3cccc(Cl)c3)C23C(Cl)C(=O)N3c2nc3ccccc3s2)ccc1O (configuration not stated) | 66.1 µM | 25.2 µM |  | 30.1 µM | 72.2 µM | 57.4 µM |  |  | 36.3 µM | 48.7 µM
